# Values joined by “and” are separate entries in the source; they are usually repeats but may differ in a detail not shown here. Identical values can stand only once. Toxic doses and inconclusive results are not listed.
# System: BDF1 mice, intracerebral B16 melanoma, median survival T/C
# Test: NCI In Vivo Anticancer Drug Screen. Data for tumor model B16 Melanoma (intracerebral) in B6D2F1 (BDF1) mice
# Conditions: endpoint: median survival time, higher = longer survival
# Procedure: The antitumor activity of compounds was measured in mice bearing transplantable tumors. Survival or tumor size were measured and the results are expressed as the measurement made in the treated group (T) divided by the measurement made in the vehicle treated control group (C). The tumor model used in this assay is B16 Melanoma (intracerebral) in B6D2F1 (BDF1) mice
# [1] = dose: 0.5 mg/kg/injection, schedule: Q01DX009 (ip), vehicle: saline
# [2] = dose: 1.0 mg/kg/injection, schedule: Q01DX009 (ip), vehicle: saline
# [3] = dose: 2.0 mg/kg/injection, schedule: Q01DX009 (ip), vehicle: saline
# [4] = dose: 64.0 mg/kg/injection, schedule: Q01DX005 (ip), vehicle: saline with Tween-80
# [5] = dose: 128.0 mg/kg/injection, schedule: Q01DX005 (ip), vehicle: saline with Tween-80
# [6] = dose: 0.25 mg/kg/injection, schedule: Q01DX009 (ip), vehicle: saline
# [7] = dose: 32.0 mg/kg/injection, schedule: Q01DX005 (ip), vehicle: saline with Tween-80
smiles,measurement,setting,value
CN(C)N=Nc1ccc2c(c1)N(C)c1ccc(F)cc1S2,T/C,"dose: 6.25 mg/kg/injection, schedule: Q01DX009 (ip), vehicle: other",90 % of control
same,T/C,"dose: 12.5 mg/kg/injection, schedule: Q01DX009 (ip), vehicle: other",105 % of control
same,T/C,"dose: 25.0 mg/kg/injection, schedule: Q01DX009 (ip), vehicle: other",112 % of control
same,T/C,"dose: 50.0 mg/kg/injection, schedule: Q01DX009 (ip), vehicle: other",105 % of control
same,T/C,"dose: 100.0 mg/kg/injection, schedule: Q01DX009 (ip), vehicle: other",112 % of control
O=C1c2c(O)ccc(O)c2C(=O)c2c(NCCNCCO)ccc(NCCNCCO)c21,T/C,[1],90 % of control
same,T/C,[2],96 % of control
same,T/C,[3],102 % of control
Nc1nncs1,T/C,[4],100 % of control and 107 % of control
same,T/C,[5],119 % of control and 97 % of control
same,T/C,"dose: 256.0 mg/kg/injection, schedule: Q01DX005 (ip), vehicle: saline with Tween-80",113 % of control
same,T/C,"dose: 512.0 mg/kg/injection, schedule: Q01DX005 (ip), vehicle: saline with Tween-80",113 % of control
COc1ccc2c(c1O)-c1cccc3c1[C@@H](C2)N(CCCl)CC3,T/C,"dose: 8.0 mg/kg/injection, schedule: Q01DX005 (ip), vehicle: saline",94 % of control
same,T/C,"dose: 16.0 mg/kg/injection, schedule: Q01DX005 (ip), vehicle: saline",88 % of control
O=C1NC2(CCCCC2)C(=O)N1CCN(CCCl)CCCl,T/C,"dose: 1.5 mg/kg/injection, schedule: Q01DX009 (ip), vehicle: saline with Tween-80",97 % of control
same,T/C,"dose: 3.0 mg/kg/injection, schedule: Q01DX009 (ip), vehicle: saline with Tween-80",103 % of control
same,T/C,"dose: 6.0 mg/kg/injection, schedule: Q01DX009 (ip), vehicle: saline with Tween-80",106 % of control
same,T/C,"dose: 12.0 mg/kg/injection, schedule: Q01DX009 (ip), vehicle: saline with Tween-80",103 % of control
OC(C1CO1)C(O)C1CO1 (centres undefined),T/C,"dose: 0.12 mg/kg/injection, schedule: Q01DX009 (ip), vehicle: saline",100 % of control and 101 % of control
same,T/C,[6],122 % of control and 110 % of control
same,T/C,[1],94 % of control and 112 % of control
same,T/C,[2],120 % of control and 103 % of control
same,T/C,[3],123 % of control
CC/C(=C(/CC)c1ccc(O)cc1)c1ccc(O)cc1,T/C,"dose: 8.0 mg/kg/injection, schedule: Q01DX009 (ip), vehicle: Klucel (hydroxypropylcellulose) (HPC)",106 % of control
same,T/C,"dose: 16.0 mg/kg/injection, schedule: Q01DX005 (ip), vehicle: saline with Tween-80",100 % of control
same,T/C,"dose: 16.0 mg/kg/injection, schedule: Q01DX009 (ip), vehicle: Klucel (hydroxypropylcellulose) (HPC)",102 % of control
same,T/C,[7],99 % of control and 111 % of control
same,T/C,"dose: 32.0 mg/kg/injection, schedule: Q01DX009 (ip), vehicle: Klucel (hydroxypropylcellulose) (HPC)",95 % of control
same,T/C,[4],96 % of control and 103 % of control
same,T/C,"dose: 64.0 mg/kg/injection, schedule: Q01DX009 (ip), vehicle: Klucel (hydroxypropylcellulose) (HPC)",106 % of control
same,T/C,[5],88 % of control and 102 % of control
same,T/C,"dose: 128.0 mg/kg/injection, schedule: Q01DX009 (ip), vehicle: Klucel (hydroxypropylcellulose) (HPC)",104 % of control
same,T/C,"dose: 256.0 mg/kg/injection, schedule: Q01DX009 (ip), vehicle: Klucel (hydroxypropylcellulose) (HPC)",111 % of control
NC(CSC(c1ccccc1)(c1ccccc1)c1ccccc1)C(=O)O (centres undefined),T/C,"dose: 32.0 mg/kg/injection, schedule: Q01DX005 (ip), vehicle: Klucel (hydroxypropylcellulose) (HPC)",105 % of control and 115 % of control
same,T/C,"dose: 64.0 mg/kg/injection, schedule: Q01DX005 (ip), vehicle: Klucel (hydroxypropylcellulose) (HPC)",105 % of control and 112 % of control
same,T/C,"dose: 128.0 mg/kg/injection, schedule: Q01DX005 (ip), vehicle: Klucel (hydroxypropylcellulose) (HPC)",117 % of control and 119 % of control
same,T/C,"dose: 256.0 mg/kg/injection, schedule: Q01DX005 (ip), vehicle: Klucel (hydroxypropylcellulose) (HPC)",124 % of control and 107 % of control
CNNCc1ccc(C(=O)NC(C)C)cc1,T/C,"dose: 25.0 mg/kg/injection, schedule: Q01DX009 (ip), vehicle: saline",120 % of control
same,T/C,"dose: 75.0 mg/kg/injection, schedule: Q01DX009 (ip), vehicle: water",154 % of control
same,T/C,"dose: 100.0 mg/kg/injection, schedule: Q01DX009 (ip), vehicle: saline",163 % of control
same,T/C,"dose: 150.0 mg/kg/injection, schedule: Q01DX009 (ip), vehicle: water",163 % of control
same,T/C,"dose: 200.0 mg/kg/injection, schedule: Q01DX009 (ip), vehicle: saline",168 % of control and 170 % of control
same,T/C,"dose: 300.0 mg/kg/injection, schedule: Q01DX009 (ip), vehicle: water",100 % of control
CCCCN(C)N=Nc1c(C(N)=O)n[nH]c1C,T/C,[7],121 % of control
CSCS(=O)C[C@H](CO)NC(=O)/C=C/c1c(C)[nH]c(=O)[nH]c1=O (some centres undefined),T/C,"dose: 0.06 mg/kg/injection, schedule: Q01DX005 (ip), vehicle: Klucel (hydroxypropylcellulose) (HPC)",97 % of control
same,T/C,"dose: 0.12 mg/kg/injection, schedule: Q01DX005 (ip), vehicle: Klucel (hydroxypropylcellulose) (HPC)",98 % of control
same,T/C,"dose: 0.25 mg/kg/injection, schedule: Q01DX005 (ip), vehicle: Klucel (hydroxypropylcellulose) (HPC)",103 % of control
same,T/C,"dose: 0.5 mg/kg/injection, schedule: Q01DX005 (ip), vehicle: Klucel (hydroxypropylcellulose) (HPC)",98 % of control
CC[n+]1c(-c2ccccc2)c2cc(N)ccc2c2ccc(N)cc21,T/C,"dose: 6.0 mg/kg/injection, schedule: Q01DX005 (ip), vehicle: saline",95 % of control
same,T/C,"dose: 12.0 mg/kg/injection, schedule: Q01DX005 (ip), vehicle: saline",104 % of control and 105 % of control and 109 % of control
same,T/C,"dose: 24.0 mg/kg/injection, schedule: Q01DX005 (ip), vehicle: saline",105 % of control
O=NN(CCCl)C(=O)NCCCl,T/C,[1],104 % of control and 112 % of control
same,T/C,[2],109 % of control and 113 % of control
same,T/C,"dose: 1.87 mg/kg/injection, schedule: Q01DX009 (ip), vehicle: saline",120 % of control
same,T/C,[3],111 % of control and 112 % of control
same,T/C,"dose: 2.5 mg/kg/injection, schedule: Q04DX003 (ip), vehicle: saline sonified",108 % of control
same,T/C,"dose: 3.8 mg/kg/injection, schedule: Q01DX009 (ip), vehicle: saline",108 % of control
same,T/C,"dose: 5.0 mg/kg/injection, schedule: Q01DX009 (ip), vehicle: other",158 % of control
same,T/C,"dose: 7.5 mg/kg/injection, schedule: Q01DX009 (ip), vehicle: saline",150 % of control
same,T/C,"dose: 8.0 mg/kg/injection, schedule: Q01DX009 (ip), vehicle: saline",172 % of control and 188 % of control
same,T/C,"dose: 10.0 mg/kg/injection, schedule: Q04DX003 (ip), vehicle: saline sonified",175 % of control
same,T/C,"dose: 15.0 mg/kg/injection, schedule: Q01DX009 (ip), vehicle: saline",91 % of control and 108 % of control
CO[C@H](C(=O)[C@@H](O)[C@@H](C)O)[C@@H]1Cc2cc3cc(OC4CC(OC5CC(O)C(O)C(C)O5)C(O)C(C)O4)c(C)c(O)c3c(O)c2C(=O)[C@H]1OC1CC(OC2CC(OC3CC(C)(O)C(O)C(C)O3)C(O)C(C)O2)C(O)C(C)O1 (some centres undefined),T/C,"dose: 0.13 mg/kg/injection, schedule: Q01DX009 (ip), vehicle: saline",91 % of control and 95 % of control
same,T/C,[6],109 % of control and 112 % of control
same,T/C,[1],91 % of control and 100 % of control
same,T/C,[2],87 % of control and 90 % of control
Nc1nc2c(c(=O)[nH]1)N(C=O)C(CNc1ccc(C(=O)N[C@@H](CCC(=O)O)C(=O)O)cc1)CN2 (some centres undefined),T/C,"dose: 128.0 mg/kg/injection, schedule: Q01DX005 (ip), vehicle: saline",102 % of control
same,T/C,"dose: 256.0 mg/kg/injection, schedule: Q01DX005 (ip), vehicle: saline",95 % of control
same,T/C,"dose: 512.0 mg/kg/injection, schedule: Q01DX005 (ip), vehicle: saline",87 % of control
CCC1=C(c2ccc(OC)cc2)CCC(C(=O)O)C1C (centres undefined),T/C,"dose: 4.0 mg/kg/injection, schedule: Q01DX005 (ip), vehicle: saline with Tween-80",95 % of control
same,T/C,"dose: 4.0 mg/kg/injection, schedule: Q01DX005 (ip), vehicle: suspension in saline",103 % of control
same,T/C,"dose: 8.0 mg/kg/injection, schedule: Q01DX005 (ip), vehicle: saline with Tween-80",91 % of control
same,T/C,"dose: 8.0 mg/kg/injection, schedule: Q01DX005 (ip), vehicle: suspension in saline",95 % of control
same,T/C,"dose: 16.0 mg/kg/injection, schedule: Q01DX005 (ip), vehicle: suspension in saline",87 % of control
same,T/C,[7],105 % of control
same,T/C,"dose: 32.0 mg/kg/injection, schedule: Q01DX005 (ip), vehicle: suspension in saline",95 % of control
O=NN(CCCl)C(=O)NC1[C@H](O)CCC[C@@H]1O (some centres undefined),T/C,"dose: 4.32 mg/kg/injection, schedule: Q01DX001 (ip), vehicle: saline",104 % of control
same,T/C,"dose: 12.0 mg/kg/injection, schedule: Q01DX001 (ip), vehicle: saline",152 % of control
CN(C)c1nc(N(C)C)nc(N(C)C)n1,T/C,"dose: 100.0 mg/kg/injection, schedule: Q01DX005 (ip), vehicle: saline with Tween-80",91 % of control

# — PubChem BioAssay AID196 (DTP/NCI, 2004)
